From ChEMBL document CHEMBL2169830, “Identification, synthesis, and biological evaluation of the metabolites of 3-amino-6-(3'-aminopropyl)-5H-indeno[1,2-c]isoquinoline-5,11-(6H)dione (AM6-36), a promising rexinoid lead compound for the development of cancer chemotherapeutic and chemopreventive agents” (J Med Chem, 2012)

Assays:
[1] = Cytotoxicity against human HEK293 cells assessed as cell survival at 50 uM relative to control; type: cell-based; conditions: read-out: Survival
[2] = Inhibition of TNFalpha-induced human NFkappaB activity in HEK293 cells incubated for 6 hrs followed by compound wash out measured after 5 mins by luciferase assay; type: cell-based
HEK293 [3] = test: Inhibition of TNFalpha-induced human NFkappaB activity in HEK293 cells at 50 uM incubated for 6 hrs followed by compound wash out measured after 5 mins by luciferase assay; type: cell-based
[4] = Cytotoxicity against african green monkey COS1 cells assessed as cell survival at 50 uM relative to control; type: cell-based; conditions: chlorocebus aethiops, COS-1 cells; read-out: Survival
HEK293 [5] = test: Cytotoxicity against human HEK293 cells; type: cell-based
[6] = target: T1, Retinoic acid receptor RXR-alpha (Homo sapiens, UniProt P19793); test: Agonist activity at human RXRalpha expressed in african green monkey COS1 cells assessed as induction of RXRE transcriptional activity after 12 hrs by luciferase reporter gene assay; type: functional, cell-based, COS-1
T1 sequence (P19793 whole entry): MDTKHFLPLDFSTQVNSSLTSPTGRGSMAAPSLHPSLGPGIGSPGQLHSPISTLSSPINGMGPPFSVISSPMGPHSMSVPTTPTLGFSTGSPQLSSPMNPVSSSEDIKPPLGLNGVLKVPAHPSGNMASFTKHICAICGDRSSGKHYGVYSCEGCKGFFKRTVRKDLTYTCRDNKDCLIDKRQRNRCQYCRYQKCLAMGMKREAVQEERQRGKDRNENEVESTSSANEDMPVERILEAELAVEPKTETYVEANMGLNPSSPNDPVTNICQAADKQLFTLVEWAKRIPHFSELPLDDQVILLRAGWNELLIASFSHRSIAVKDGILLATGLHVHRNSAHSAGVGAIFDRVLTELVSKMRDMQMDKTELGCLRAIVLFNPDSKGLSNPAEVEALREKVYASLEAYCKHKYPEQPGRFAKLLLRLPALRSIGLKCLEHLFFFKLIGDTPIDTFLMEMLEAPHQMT

[7] = target: T2, Retinoic acid receptor RXR-alpha (Homo sapiens) (UniProt P19793); test: Agonist activity at human RXRalpha expressed in african green monkey COS1 cells assessed as induction of RXRE transcriptional activity at 12.5 uM after 12 hrs by luciferase reporter gene assay relative to control; type: functional, cell-based; conditions: COS-1
T2 sequence (whole entry): T1 sequence (P19793 whole entry)

[8] = Cytotoxicity against african green monkey COS1 cells assessed as cell survival at 40 uM relative to control; type: cell-based; conditions: chlorocebus aethiops, COS-1 cells; read-out: Survival

SMILES | viability at 50 µM [1] | IC50 [2] | inhibition (HEK293 [3]) | viability at 50 µM [4] | IC50 (HEK293 [5]) | EC50 [6] | fold change (FC) [7] | viability at 40 µM [8]
CNc1ccc2c3c(n(CCCN)c(=O)c2c1)-c1ccccc1C3O (stereo not drawn) | 95% | 0.7 µM | 69.2% | 63.6% | – | – | – | –
CNc1ccc2c3c(n(CCCNC(=O)OC(C)(C)C)c(=O)c2c1)-c1ccccc1C3O (stereo not drawn) | 90.1% | 0.4 µM | 83.4% | 67.5% | – | – | – | –
CN(C)c1ccc2c3c(n(CCCNC(=O)OC(C)(C)C)c(=O)c2c1)-c1ccccc1C3=O | 97.6% | – | 25.9% | 102% | – | – | – | –
NCCCn1c2c(c3ccc([N+](=O)[O-])cc3c1=O)C(=O)c1ccccc1-2 | < 50% | 2.6 µM | 80.8% | < 50% | 16.9 µM | – | – | –
CC(=O)Nc1ccc2c3c(n(CCCN=[N+]=[N-])c(=O)c2c1)-c1ccccc1C3=O | 115% | – | 0% | 93.1% | – | – | – | –
CNc1ccc2c3c(n(CCCNC(=O)OC(C)(C)C)c(=O)c2c1)-c1ccccc1C3=O | 68.6% | – | 53.9% | 94.8% | – | – | – | –
Nc1ccc2c3c(n(CCCO)c(=O)c2c1)-c1ccccc1C3O (stereo not drawn) | 118% | 49.3 µM | 57.8% | 86.9% | – | – | – | –
Cc1ccc(S(=O)(=O)N[C@@H](Cc2ccccc2)C(=O)CCl)cc1 [TPCK] | – | 5.1 µM | – | – | – | – | – | –
CC(=O)NCCCn1c2c(c3ccc(N)cc3c1=O)C(=O)c1ccccc1-2 | 106% | 14.4 µM | 81.8% | 75.2% | – | 20.9 µM | 3.52 | –
CC(=O)Nc1ccc2c3c(n(CCCN)c(=O)c2c1)-c1ccccc1C3=O | 122% | – | 0% | 74.5% | – | > 41.4 µM | 3.55 | –
CC(=O)Nc1ccc2c3c(n(CCCO)c(=O)c2c1)-c1ccccc1C3=O | 128% | – | 53.9% | 90.6% | – | – | – | –
O=C1c2ccccc2-c2c1c1ccc([N+](=O)[O-])cc1c(=O)n2CCCBr | 118% | – | 21.8% | – | – | – | – | 100%
CN(C)c1ccc2c3c(n(CCCN)c(=O)c2c1)-c1ccccc1C3=O | 110% | 32.3 µM | 86.3% | < 50% | – | – | – | –
C=C(c1ccc(C(=O)O)cc1)c1cc2c(cc1C)C(C)(C)CCC2(C)C [BEXAROTENE] | – | – | – | – | – | – | – | 74.5%
Cc1ccc(S(=O)(=O)/C=C/C#N)cc1 | – | 2.01 µM | – | – | – | – | – | –
CC(=O)NCCCn1c2c(c3ccc([N+](=O)[O-])cc3c1=O)C(=O)c1ccccc1-2 | 69.1% | 38.8 µM | 87.4% | 99.4% | – | – | – | –
NCCCn1c2c(c3ccc(N)cc3c1=O)C(O)c1ccccc1-2 (stereo not drawn) | < 50% | – | 53.1% | 87.5% | – | – | – | –
CNCCCn1c2c(c3ccc(N)cc3c1=O)C(O)c1ccccc1-2 (stereo not drawn) | 90.1% | 0.6 µM | 83.7% | 84.1% | – | – | – | –
CC(C)(C)OC(=O)NCCCn1c2c(c3ccc([N+](=O)[O-])cc3c1=O)C(=O)c1ccccc1-2 | 101% | – | 0% | 106% | – | – | – | –
O=C1c2ccccc2-c2c1c1ccc([N+](=O)[O-])cc1c(=O)n2CCCO | 114% | 7.3 µM | 72.8% | 91.4% | – | – | – | –
CNc1ccc2c3c(n(CCCN)c(=O)c2c1)-c1ccccc1C3=O | 99.4% | – | 0% | < 50% | – | – | 6.09 | –
CC(C)(C)OC(=O)NCCCn1c2c(c3ccc(N)cc3c1=O)C(=O)c1ccccc1-2 | 107% | – | 0% | 104% | – | – | – | –
Nc1ccc2c3c(n(CCCCl)c(=O)c2c1)-c1ccccc1C3=O | 91.4% | – | 0% | 102% | – | – | – | –
CC(=O)Nc1ccc2c3c(n(CCCN)c(=O)c2c1)-c1ccccc1C3O (stereo not drawn) | 99.2% | – | 0% | 83.7% | – | – | – | –
CNCCCn1c2c(c3ccc([N+](=O)[O-])cc3c1=O)C(=O)c1ccccc1-2 | 79.7% | 3.7 µM | 92.4% | < 50% | – | – | – | –
CNCCCn1c2c(c3ccc(N)cc3c1=O)C(=O)c1ccccc1-2 | 117% | 39.8 µM | 63.1% | 64.5% | – | – | 8.97 | –
Nc1ccc2c3c(n(CCCO)c(=O)c2c1)-c1ccccc1C3=O | 116% | – | 53.2% | 85.9% | – | – | – | –
